This is an account of results in US10765690B2, “TLR4 agonists and compositions thereof and their use in the treatment of cancer” (GlaxoSmithKline Intellectual Property Development Limited, priority 2015, dated 2020).

In assay [1] the test system is L1210 murine leukemia cells. Nature of the assay: L1210 murine leukemia model, survival of tumor-bearing mice. The class given is in vivo, BDF1 mice. To be noted: mitomycin C 40 ug IP day 6 followed by CRX-527-AF 100 ug IP day 7; compared to either component alone; through day 54. On the procedure:
To investigate whether a combination treatment consisting of the chemotherapeutic mitomycin C and the AGP CRX-527 would prolong survival of cancer-bearing mice better than either treatment alone, BDF1 mice (10 per group) that had been seeded with L1210 murine leukemia cells (10^4 tumor cells via the intraperitoneal (IP) route) on day 0 were treated with, 1) nothing (untreated control), 2) an intraperitoneal injection of mitomycin C (40 ug) on day 6, 3) an IP injection of CRX-527-AF (100 ug CRX-527 in Aqueous Formulation (AF), which is 0.02% dipalmitoyl phosphatidyl choline in water) on day 7, or 4) an IP injection of mitomycin C on day 6 followed by an IP injection of CRX-527-AF on day 7. Survival curves through day 54 are presented for each group in FIG. 1.

Assay [2] has as its system Mouse Ovarian Tumor (MOT) cells. Nature of the assay: Mouse Ovarian Tumor (MOT) model, survival, wild-type TLR4 mice. To be noted: for protection (survival): 1 and 10 ug doses IP day 7 after mitomycin C day 6. It counts as in vivo, C3H/FeJ, C3H/HeOuJ, C3H/HeN mice. The protocol:
To determine whether the timing of administration of the chemotherapeutic and TLR4 ligand is important for the anti-cancer response, C3H/FeJ mice (10 per group) seeded with Mouse Ovarian Tumor (MOT) cells (10^4 tumor cells via the IP route) on day 0 were treated with, 1) nothing (untreated control), 2) mitomycin C (40 ug) on day 6, 3) CRX-527-SE (10 ug in a Stable Emulsion formulation containing 2% squalene oil-in-water) on day 4 followed by mitomycin C on day 6, 4) CRX-527-SE on day 5 followed by mitomycin C on day 6, 5) both CRX-527-SE and mitomycin C on day 6, 6) mitomycin C on day 6 followed by CRX-527-SE on day 7, 7) mitomycin C on day 6 followed by CRX-527-SE on day 10, and 8) mitomycin C on day 6 followed by CRX-527-SE on day 11. The dose/route for mitomycin C and CRX-527-SE administration was always 40 ug IP and 10 ug IP, respectively.
The effect of formulation for the anti-cancer activity observed with CRX-527 was evaluated in the MOT tumor model. In the experiment shown in FIG. 5, C3H/HeN mice (wild-type TLR4, 10 per group) were seeded with MOT tumor (10^4 tumor cells IP) on day 0. Mitomycin C (40 ug IP) was administered on day 6, and 1 or 10 ug CRX-527 formulated in AF (Aqueous Formulation=0.02% dipalmitoyl phosphatidyl choline in water), IN (Intranasal Formulation=2% glycerol in water) or SE (Stable Emulsion=2% squalene oil-in-water) was administered via the IP route on day 7. […] The results of this experiment indicate that the potency of CRX-527 in this model can be enhanced through formulation.
Group size was 10 in this experiment. […]

Assay [3] has the same test system. The assay is described as follows: MOT model in TLR4 mutant (non-responder) mice, survival. The class given is in vivo. To be noted: MOT-bearing C3H/HeJ TLR4 mutant mice.
In assay [4] the test system is B16-F10 melanoma cells. The assay is described as follows: B16-F10 melanoma lung metastasis, lung tumor burden. It counts as in vivo, BDF1 mice. To be noted: CRX-527-SE 10 ug IV and cyclophosphamide 4 mg IP on day 1. The protocol: In further experimentation, B16-F10 melanoma cells transfected with green fluorescent protein were used to quantify metastasis of the tumor to the lungs of mice. Because green fluorescent protein allows quantification of the amount of tumor in the lungs of B16-F10-bearing mice, it was possible to evaluate the efficacy of various treatment regimens using lung tumor burden as the read-out. BDF1 mice were seeded with B16-F10 melanoma cells (1.5×10^3 IV) on day 0. […] On day 26, the mice were sacrificed and their lungs were collected. The lungs from each mouse were photographed and then homogenized so that the luciferase activity could be quantified to determine how much B16-F10 tumor was present. […] This observation was confirmed when the lungs were homogenized and evaluated for luciferase activity.

The test system of another assay is 4T1 tumor cells. Nature of the assay: 4T1 murine breast cancer model, survival after removal of primary tumor. It counts as in vivo, BALB/c Mice. To be noted: cyclophosphamide 3 mg IP and CRX-527 various doses IV on day 15; vs vehicle or cyclophosphamide alone. The protocol:
The benefit of combining chemotherapeutic agents with TLR4 ligands such as AGPs was also confirmed in the 4T1 murine breast cancer model. For the experiments conducted using this metastatic cancer model, 4T1 tumor cells (7×10^3 in 50 uL) were injected into the lower mammary gland of each mouse on day 0. The primary tumors were surgically removed on day 14, the mice (10 per group) were treated on day 15 with vehicles, cyclophosphamide (3 mg IP) or cyclophosphamide (3 mg IP) and CRX-527 (various doses IV).

Assay [5] has as its system CT-26 colorectal tumor cells. Nature of the assay: CT-26 syngeneic colon carcinoma model, escalating i.p. doses (Example 9). To be noted: CRX-527 4, 20, 100 ug per mouse i.p. biweekly. It counts as in vivo, Balb/c mice. An excerpt:
The CT26 mouse colon carcinoma (CT26.WT; ATCC #CRL-2638) cell line was obtained from ATCC. It is an N-nitroso-N-methylurethane-(NNMU) induced, undifferentiated colon carcinoma cell line known in the art. For example, it is described in: Wang M, et al. Active immunotherapy of cancer with a nonreplicating recombinant fowlpox virus encoding a model tumor-associated antigen. J. Immunol. 154: 4685-4692, 1995 (PubMed: 7722321), which is incorporated by reference in its entirety herein. For preparation of tumor cells, A frozen (−140° C.) vial of CT-26 (mouse colon carcinoma cells), from ATCC (cat # CRL-2638, lot #59227052) are thawed and cultured in basic RPMI (with 10% FBS) media over the following week.
CT-26 cells (passage 12) are harvested from the flask in complete medium. Cells are centrifuged and resuspended in RPMI (without FBS), this step is repeated 3 times. Cell density and viability are checked via trypan blue exclusion. Cells are then diluted to desired density (5×10^5 cells per mL) and kept on ice.
Escalating doses of CRX 527 are evaluated for their efficacy in reducing tumor growth. Animals are weighed and innoculated on the right hind quarter with 0.5×10^5 CT26 tumor cells per mouse on Day 0. A total of 130 mice are inoculated with tumor cells—assuming 30% failure rate (either too big or too small at time of start of study), the goal is to have n=10 for each group. After tumor cell innoculation, tumor growth and total body weight are measured 3 times a week for the duration of the study. Randomization occurs on day 10 or 11 when the average tumor volume is approximately 100 mm^3. Begining on the day of randomization, animals are dosed with CRX 527 or vehicle i.p. biweekly, for a total of 6 doses. Mice remain on study until tumors reach >2000 cu mm for two consecutive measurements, they are removed from study for other reasons (i.e. weight loss >20%, ulceration on tumor, etc.) or until the end of the study. After euthanization the tumors may be removed and subject to dissociation for flow analysis and/or FFPE for IHC analysis.
The above protocol was used to generate the results in FIG. 17 at the dosages indicated. In almost every case, Balb/c mice that were inoculated with 0.5×10^5 CT-26 colorectal tumor cells on the right hind quarter developed tumors that, when treated i.p. with vehicle (2% glycerol) only, and progressed as expected. […] FIG. 17.

The subject of assay [6] is Mouse Ovarian Tumor (MOT) cells. Nature of the assay: Mouse Ovarian Tumor (MOT) model, survival, wild-type TLR4 mice. The class given is in vivo, C3H/FeJ, C3H/HeOuJ, C3H/HeN mice.
Assay [7] has as its system B16-F10 melanoma cells. Nature of the assay: B16-F10 murine melanoma model, survival. To be noted: cyclophosphamide alone 3 mg IP on day 5. It counts as in vivo, BDF1 mice. The protocol: The efficacy of combination therapy with a chemotherapeutic agent and an AGP was also tested in a murine melanoma model using a non-immunogenic tumor called B16-F10. In these experiments, BDF1 mice were seeded with B16-F10 melanoma cells (1.5×10^3 IV) on day 0. At various time thereafter, cancer-bearing mice were treated with cyclophosphamide (aka Cytoxan) alone (3 mg IP), CRX-527-IN (10 ug) alone or a combination of the two agents.

As for `CCCCCCCCCCC[C@H](CC(=O)N[C@H]1[C@H](OC[C@H](NC(=O)C[C@@H](CCCCCCCCCCC)OC(=O)CCCCCCCCC)C(=O)O)O[C@H](CO)[C@@H](OP(=O)(O)O)[C@@H]1OC(=O)C[C@@H](CCCCCCCCCCC)OC(=O)CCCCCCCCC)OC(=O)CCCCCCCCC` [CRX-527], the survival result in assay [1] is “significantly prolonged survival”; in assay [2] (C3H/HeN mice, CRX-527 1 or 10 ug IP day 7, one day after mitomycin C 40 ug IP), “prolonged survival”; in assay [2] (both mitomycin C and CRX-527, compared to either component alone), “significantly prolonged survival”; in assay [3], “did not promote survival”; in assay [6] (C3H/HeOuJ wild-type mice, alone or in combination with mitomycin C) it was “promoted survival”. Also, in assay [2] (AF formulation (0.02% dipalmitoyl phosphatidyl choline in water), IP day 7 after mitomycin C day 6), the “dose required to induce a high level of protection” value worked out at 10 µg. Further, the survival times entry is on record as “significantly prolonged survival times” in assay [2] (C3H/FeJ mice, CRX-527-SE 10 ug IP at the same time as or up to 5 days after mitomycin C 40 ug IP (day 6), vs untreated, mitomycin alone or CRX527-SE followed by mitomycin C) and “longer survival times” with 4T1 tumor cells. Besides, the “potency compared to the AF formulation” value in assay [2] (IN formulation (2% glycerol in water), IP day 7 after mitomycin C day 6) is “enhanced potency”; in assay [2] (SE formulation (2% squalene oil-in-water), IP day 7 after mitomycin C day 6), “enhanced potency”. For the same molecule, the “protection (survival)” value in assay [2] (IN formulation) and in assay [2] (SE formulation) was “highly effective” throughout. Moreover, in the assay with B16-F10 melanoma cells [4] (day 26, vs vehicle or either agent alone), the “luciferase activity in homogenized lungs” value was “significantly less luciferase activity”. In addition, the “lung tumor burden by visual examination” value with B16-F10 melanoma cells [4] (lungs collected day 26) is “lower lung tumor burden than any other group”. Also, in assay [5], the survivability result is “Dose dependence was also seen”. Besides, the tumor growth entry in assay [5] (6 doses, compared to vehicle (2% glycerol)) is “inhibited tumor growth in a dose dependent manner”. The “resistance to re-challenge with the same tumor” value in assay [6] (mice cured of MOT tumor by combination treatment with mitomycin C and CRX-527, compared to naive control mice) is given as “resistant to re-challenge”.
Regarding `O.O=P1(N(CCCl)CCCl)NCCCO1` (stereo not shown) [cyclophosphamide, 2-[bis(2-chloroethyl)amino]tetrahydro-2H-1,3,2-oxazaphosphorine 2-oxide monohydrate], the survival entry with B16-F10 melanoma cells [7] is reported as “modest prolongation”.
Regarding `CO[C@@]12[C@H](COC(N)=O)C3=C(C(=O)C(C)=C(N)C3=O)N1C[C@@H]1N[C@@H]12` [mitomycin C, reference compound], the survival result in assay [2] (C3H/HeN mice, mitomycin C alone 40 ug IP day 6, compared to no treatment control) is recorded as “small increase in survival”.
